Reference: patent US20080241234A1, “PHARMACEUTICAL FORMULATIONS OF AN ANHYDRATE CRYSTAL FORM OF 2-(3-FLUORO-4-HYDROXYPHENYL)-7-VINYL-1,3-BENZOXAZOL-5-OL” (WYETH, priority 2006, published 2008)

Experiment: Crystal form conversion on suspending and stirring in a solvent at room temperature
Assay type: physicochemical
Text: The anhydrate crystal form (Form E) can be converted to other crystal forms under suitable conditions. […] 6, 2006).

## C=Cc1cc(O)cc2nc(-c3ccc(O)c(F)c3)oc12 [Form E, 2-(3-fluoro-4-hydroxyphenyl)-7-vinyl-1,3-benzoxazol-5-ol]
Suspended and stirred in ethanol or acetone at room temperature for seven days
  crystal form obtained after suspension and stirring in ethanol or acetone: another anhydrate crystal form is obtained
Suspended and stirred in water at room temperature for seven days
  crystal form obtained after suspension and stirring in water: converted to a hydrate crystal form
